Laboratory results published in publication PMC7226860 (ACS Omega, 2020).

What was measured:
Experiment in all cases: Agar well diffusion, inhibition zone
E. coli (ATCC: 3008) = format: cell-based, Escherichia coli; conditions: for diameter of the inhibition zone: E. coli (ATCC: 3008), Gram (−ve), agar well diffusion, 15 mg/mL, mean ± SD
S. aureus (ATCC: 6538) = format: cell-based, Staphylococcus aureus; conditions: for zone of inhibition at 15000 µg/mL: Staphylococcus aureus, read-out: diameter of the inhibition zone; for diameter of the inhibition zone: S. aureus (ATCC: 6538), Gram (+ve), agar well diffusion, 15 mg/mL, mean ± SD
S. mutans (ATCC: 25175) = format: cell-based, Streptococcus mutans; conditions: for zone of inhibition at 15000 µg/mL: Streptococcus mutans, read-out: diameter of the inhibition zone; for diameter of the inhibition zone: S. mutans (ATCC: 25175), Gram (+ve), agar well diffusion, 15 mg/mL, mean ± SD
[1] = system: C. albicans (ATCC: 10231); format: cell-based, Candida albicans; conditions: for diameter of the inhibition zone: C. albicans (ATCC: 10231), fungi, 15 mg/mL, mean ± SD
[2] = system: P. aeruginosa (ATCC: 27853); format: cell-based, Pseudomonas aeruginosa; conditions: P. aeruginosa (ATCC: 27853), Gram (−ve); agar well diffusion, 15 mg/mL; mean ± SD
[3] = system: K. pneumonia (ATCC: 4415); format: cell-based, Klebsiella pneumonia; conditions: for diameter of the inhibition zone: K. pneumonia (ATCC: 4415), Gram (−ve), 15 mg/mL, mean ± SD; for zone of inhibition at 15000 µg/mL: Klebsiella pneumoniae, read-out: diameter of the inhibition zone, K. pneumonia (ATCC: 4415), Gram (−ve), 15 mg/mL, mean ± SD

SMILES	diameter of the inhibition zone (E. coli (ATCC: 3008))	zone of inhibition at 15000 µg/mL (S. aureus (ATCC: 6538)) [mm]	zone of inhibition at 15000 µg/mL (S. mutans (ATCC: 25175)) [mm]	diameter of the inhibition zone [1]	zone of inhibition at 15000 µg/mL ([1]; Candida albicans, read-out: diameter of the inhibition zone, C. albicans (ATCC: 10231), fungi, 15 mg/mL, mean ± SD) [mm]	diameter of the inhibition zone [2]	diameter of the inhibition zone [3]	diameter of the inhibition zone (S. aureus (ATCC: 6538))	diameter of the inhibition zone (S. mutans (ATCC: 25175))	zone of inhibition at 15000 µg/mL (E. coli (ATCC: 3008); Escherichia coli, read-out: diameter of the inhibition zone) [mm]	zone of inhibition at 15000 µg/mL [3] [mm]
CSc1c(C(=O)Nc2ccc(C)cc2)c(N)n(NS(=O)(=O)c2ccc(C)cc2)c(=O)c1-c1nc2ccccc2s1 [compound 9d, 2-Amino-5-(benzo[d]thiazol-2-yl)-1-(4-methylphenylsulfonamido)-4-(methylthio)-6-oxo-N-(p-tolyl)-1,6-dihydropyridine-3-carboxamide]	−	26.8 ± 1.5	8.8 ± 1	28.0 ± 0.7 mm	21 to 28	−	−				
CSc1c(C(=O)Nc2ccccc2)c(N)n(NS(=O)(=O)c2ccccc2)c(=O)c1-c1nc2ccccc2s1 [compound 9a, 2-Amino-5-(benzo[d]thiazol-2-yl)-4-(methylthio)-6-oxo-N-phenyl-1-(phenylsulfonamido)-1,6-dihydropyridine-3-carboxamide]	−	31 ± 1		−		−	−	31 ± 1.0 mm	−		
CSc1c(C(=O)Nc2ccc(C)cc2)c(N)n(NS(=O)(=O)c2ccccc2)c(=O)c1-c1nc2ccccc2s1 [compound 9c, 2-Amino-5-(benzo[d]thiazol-2-yl)-4-(methylthio)-6-oxo-1-(phenylsulfonamido)-N-(p-tolyl)-1,6-dihydropyridine-3-carboxamide]			20.2 ± 1	−		−	29.2 ± 0.3 mm	−		14.8 ± 0.2	29
COc1ccc(NC(=O)c2c(SC)c(-c3nc4ccccc4s3)c(=O)n(NS(=O)(=O)c3ccccc3)c2N)cc1 [compound 9e, 2-Amino-5-(benzo[d]thiazol-2-yl)-N-(4-methoxyphenyl)-4-(methylthio)-6-oxo-1-(phenylsulfonamido)-1,6-dihydropyridine-3-carboxamide]	−	19.6 ± 1		−		−	no activity and −		−		
O=C(Cc1nc2ccccc2s1)NNS(=O)(=O)c1ccccc1 [compound 3a, N′-(2-(Benzo[d]thiazol-2-yl)acetyl)benzenesulfonohydrazide]	− ^a			−		−		−	−		20 ± 3
CSc1c(C(=O)Nc2ccccc2)c(N)n(NS(=O)(=O)c2ccc(C)cc2)c(=O)c1-c1nc2ccccc2s1 [compound 9b, 2-Amino-5-(benzo[d]thiazol-2-yl)-1-(4-methylphenylsulfonamido)-4-(methylthio)-6-oxo-N-phenyl-1,6-dihydropyridine-3-carboxamide]	−	27.1 ± 0.2		−		−	−		−		
COc1ccc(NC(=O)c2c(SC)c(-c3nc4ccccc4s3)c(=O)n(NS(=O)(=O)c3ccc(C)cc3)c2N)cc1 [compound 9f, 2-Amino-5-(benzo[d]thiazol-2-yl)-N-(4-methoxyphenyl)-1-(4-methylphenylsulfonamido)-4-(methylthio)-6-oxo-1,6-dihydropyridine-3-carboxamide]	−			−		−	29.6 ± 1.5 mm	−	−		29
